Data: publication PMC8705783, “The Effect of Conjugation with Octaarginine, a Cell-Penetrating Peptide on Antifungal Activity of Imidazoacridinone Derivative” (International Journal of Molecular Sciences, 2021)
Values after ≈ are worked out from the molar mass of the structure shown. Read-outs that look alike come from different tables or passages of the source.

Experiments:
[1] = test system: C. albicans ATCC 10231; assay: microbe, parasite or virus in culture; format: cell-based; details: ATCC 10231
Protocol: (§1) To establish the possible mode of action for Compound 1-R8, we have analysed the killing activity and determined minimal fungicidal concentrations (MFCs) (Table 4). Additionally, killing kinetics analysis against pathogenic C. albicans ATCC 10231 was performed (Figure 2).
(§2) Minimum fungicidal concentrations (MFCs) were determined as described previously by spot assay. The MFC was determined as the lowest concentration of the test compound in which no recovery of microorganisms was observed.

[2] = test system: C. glabrata DSM 11226; assay: microbe, parasite or virus in culture; format: cell-based; details: DSM 11226
Protocol: as §1, §2

[3] = test system: C. krusei DSM 6128; assay: microbe, parasite or virus in culture; format: cell-based; details: DSM 6128
Protocol: as §1, §2

[4] = test system: C. parapsilosis DSM 5784; assay: microbe, parasite or virus in culture; format: cell-based; details: DSM 5784
Protocol: as §1, §2

[5] = test system: S. cerevisiae ATCC 9763; assay: Minimal fungicidal concentration, spot assay; format: cell-based; details: minimal fungicidal concentration that kills 99% of cells
Protocol: as §1, §2

[6] = test system: HEK-293; assay: cells; format: cell-based, human
Protocol: (§3) The investigated compounds were screened for their in vitro antiproliferative activity towards a human embryonic kidney cell line (HEK-293) and human liver cancer cell line (HEPG2) using colorimetric MTT.
(§4) The human embryonic kidney cell line (HEK-293) and human liver cancer cell line (HEPG2) were purchased from ATCC (Manassas, Virginia, USA). HEK-293 was cultured in Dulbecco’s Modified Eagle Medium (Corning, NY, USA) and HEPG2 in Minimum Essential Medium Eagle (Corning, NY, USA). For each cell line, the culture medium was supplemented with 10% fetal bovine serum, 2 mM L-glutamine, and antibiotics: penicillin 62.6 µg mL^−1 and streptomycin 40 µg mL^−1. The cells were cultured at the humidified atmosphere of 5% CO2/95% air and routinely tested for Mycoplasma contamination.
(§5) Antiproliferative activity of the compounds was determined by (3-(4,5-dimethylthiazol-2-yl)-2,5-diphenyltetrazolium bromide (MTT, Sigma-Aldrich, St. Louis, MO, USA) assay, which involves the assessment of cell viability by the measurement of the cellular oxidoreductase activity. Briefly, cells were seeded into 96-well culture plates and were allowed to adhere overnight. The investigated compounds were dissolved in DMSO and added to wells (1% final concentration of DMSO) in various concentrations. After 72 h incubation, 20 µL of MTT solution in PBS (4 mg mL^−1) was added to each well, and plates were incubated for an additional 3h in standard culture conditions. After that, the medium was aspirated, and formazan crystals were dissolved in DMSO. The absorbance was determined at 570 nm with a microplate reader (Asys UVM 340 Microplate Reader, Biochrom, Cambridge, UK). All experiments were performed three times independently in triplicate.

[7] = test system: HEPG2; assay: cells; format: cell-based, human
Protocol: as §3, §4, §5

[8] = test system: Candida albicans ATCC 10231
[9] = test system: Candida glabrata ATCC 90030
[10] = test system: Candida krusei ATCC 6258
[11] = test system: Candida parapsilosis ATCC 22019
[12] = test system: Saccharomyces cerevisiae ATCC 9763
[13] = test system: Candida albicans B3; details: B3, 12 h
[14] = test system: Candida albicans B4; details: B4, 12 h
[15] = test system: Candida albicans Gu4; details: Gu4, 12 h
[16] = test system: Candida albicans Gu5; details: Gu5, 12 h
[17] = test system: Candida albicans F2; details: F2, 12 h
[18] = test system: Candida albicans F5; details: F5, 12 h
[19] = test system: reference and fluconazole-resistant clinical strains; details: 12 h
[20] = target: T1, yeast topoisomerase II (Saccharomyces cerevisiae, UniProt P06786); design: method as in PMID 33572407; details: read-out: IC50 (yeast topoisomerase II relaxation); cited from earlier work
T1 sequence (P06786 whole entry): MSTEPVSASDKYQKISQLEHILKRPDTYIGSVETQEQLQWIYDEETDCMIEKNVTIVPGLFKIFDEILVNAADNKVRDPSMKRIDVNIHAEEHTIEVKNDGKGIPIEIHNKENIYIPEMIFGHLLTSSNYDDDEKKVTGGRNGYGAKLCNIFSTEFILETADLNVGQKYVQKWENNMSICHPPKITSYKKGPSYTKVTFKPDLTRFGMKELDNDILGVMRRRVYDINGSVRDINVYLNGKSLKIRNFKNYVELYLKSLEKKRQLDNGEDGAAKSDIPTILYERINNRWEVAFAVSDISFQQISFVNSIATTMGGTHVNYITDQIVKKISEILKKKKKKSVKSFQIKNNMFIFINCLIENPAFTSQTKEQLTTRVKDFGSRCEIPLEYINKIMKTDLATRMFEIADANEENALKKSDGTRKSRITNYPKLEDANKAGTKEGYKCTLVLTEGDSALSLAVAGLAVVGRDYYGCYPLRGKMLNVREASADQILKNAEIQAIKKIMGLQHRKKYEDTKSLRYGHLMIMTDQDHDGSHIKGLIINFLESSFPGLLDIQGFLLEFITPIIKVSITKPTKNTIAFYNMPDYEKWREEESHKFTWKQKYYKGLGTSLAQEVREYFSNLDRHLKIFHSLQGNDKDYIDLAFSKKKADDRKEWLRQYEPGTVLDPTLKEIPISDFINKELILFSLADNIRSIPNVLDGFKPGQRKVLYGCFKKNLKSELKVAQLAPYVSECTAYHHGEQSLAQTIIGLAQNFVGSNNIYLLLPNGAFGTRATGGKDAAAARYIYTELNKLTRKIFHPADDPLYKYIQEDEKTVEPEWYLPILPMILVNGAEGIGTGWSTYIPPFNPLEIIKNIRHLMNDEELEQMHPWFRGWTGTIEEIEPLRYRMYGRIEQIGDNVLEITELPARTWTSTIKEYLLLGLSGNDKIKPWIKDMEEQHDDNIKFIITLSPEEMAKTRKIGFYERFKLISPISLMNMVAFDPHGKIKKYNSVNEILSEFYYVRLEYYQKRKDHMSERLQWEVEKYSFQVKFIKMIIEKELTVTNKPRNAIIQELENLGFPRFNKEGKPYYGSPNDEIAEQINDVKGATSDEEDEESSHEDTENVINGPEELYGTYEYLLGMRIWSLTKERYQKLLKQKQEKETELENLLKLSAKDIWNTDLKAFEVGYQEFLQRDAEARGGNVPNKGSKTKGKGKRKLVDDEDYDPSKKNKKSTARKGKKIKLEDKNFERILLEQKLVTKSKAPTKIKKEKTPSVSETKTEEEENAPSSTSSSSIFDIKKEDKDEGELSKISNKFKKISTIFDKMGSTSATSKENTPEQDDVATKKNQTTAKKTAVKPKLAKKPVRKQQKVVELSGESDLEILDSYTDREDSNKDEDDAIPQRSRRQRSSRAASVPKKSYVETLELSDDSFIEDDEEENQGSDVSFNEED

[21] = test system: reference strains; assay: Antifungal activity, summary over reference strains; format: cell-based; design: key to Antifungal Activity (level): (−) Means no antifungal activity; (±) low activity; (+) moderate activity; (++) high activity at the concentration mentioned
[22] = target: T1, yeast topoisomerase II; assay: Yeast topoisomerase II relaxation assay; format: biochemical; details: supercoiled pBR322, tested at 1-200 μM
Protocol: Due to the known activity of acridine and acridone derivatives as human topoisomerase inhibitors widely analysed for cancer chemotherapy, we decided to analyse the influence of Compound 1 as well as its R8 conjugate on the fungal equivalent of that enzyme. The relaxation of supercoiled plasmid DNA by yeast topoisomerase II (yTOPO II) was studied in the presence of different concentrations of both compounds.
The inhibition of yeast topoisomerase II was analysed according to the relaxation assay kit from Inspiralis (Inspiralis Limited, Norwich, UK). Briefly, 250 ng of supercoiled pBR322 DNA (Thermo Fisher Scientific, Waltham, MA, USA), 1 mM ATP (Inspiralis Limited, UK), and 1–200 μM of the analysed compound were mixed with reaction buffer (1 mM Tris-HCl (pH 7.9), 10 mM KCl, 0.5 mM MgCl2, 0.2 % (by volume) glycerol). The reaction was initiated by the addition of an enzyme, allowed to proceed at 30 °C for 30 min and terminated by addition of 40% (m/V) sucrose, 100 mM Tris-HCl pH 8, 10 mM EDTA, and 0.5 mg mL^−1 Bromophenol Blue. Two-step extraction with chloroform:isoamyl alcohol (24:1, by volume) and butanol water was performed and mixtures were analysed on 1% agarose gel in 1 × TAE buffer, 3h, 4.5 V cm^−1. Gel was stained in GelRed 3 × staining solution (Biotium, Fremont, CA, USA) for 30 min and photographed with Gel Doc XR+Gel Documentation System (Bio-Rad: Hercules, CA, USA).

[23] = target: T1, yeast topoisomerase II; assay: Formation of cleavable complexes in vitro; format: biochemical; details: 0.1-10 μM, pBR322 plasmid DNA
Protocol: Cleavage assay of yeast topoisomerase II was performed according to the formation of cleavable complexes kit from Inspiralis. The experimental conditions were the same as for the relaxation assay except for the amount of yeast topoisomerase II (16 times more enzyme was used). The reaction was initiated by the addition of the enzyme and allowed to proceed for 10 min at 30 °C. Then, 0.35% SDS and 0.3 mg mL^−1 proteinase K (A&A Biotechnology, Gdynia, Poland) was added, and the probes were incubated in 56 °C for 1 h. The reaction was terminated by the addition of 100 mM Tris-HCl pH 8, 10 mM EDTA, 0.5 mg mL^−1 Bromophenol Blue. Extraction with chloroform:isoamyl alcohol (24:1, by volume) was performed, and mixtures were analysed on the 1.2% agarose gel with 0.5 µg mL^−1 ethidium bromide in 1x TAE buffer, 18 h, 1.1 V cm^−1. Gel was photographed with the Gel Doc XR+Gel Documentation System.

[24] = test system: Candida albicans ATCC 10231; assay: microbe, parasite or virus in culture
[25] = test system: Candida glabrata ATCC 90030; assay: microbe, parasite or virus in culture; details: Nakaseomyces glabratus, ATCC90030, 24 h, pH 7
[26] = test system: Candida krusei ATCC 6258; assay: microbe, parasite or virus in culture; details: Pichia kudriavzevii, ATCC6258, 24 h, pH 7
[27] = test system: Candida parapsilosis ATCC 22019; assay: microbe, parasite or virus in culture; details: Lodderomyces parapsilosis, ATCC22019, 24 h, pH 7
[28] = test system: Saccharomyces cerevisiae ATCC 9763; assay: microbe, parasite or virus in culture; details: ATCC9763, 24 h, pH 7
[29] = test system: Candida albicans B3; assay: microbe, parasite or virus in culture
[30] = test system: Candida albicans B4; assay: microbe, parasite or virus in culture
[31] = test system: Candida albicans Gu4; assay: microbe, parasite or virus in culture
[32] = test system: Candida albicans Gu5; assay: microbe, parasite or virus in culture
[33] = test system: Candida albicans F2; assay: microbe, parasite or virus in culture
[34] = test system: Candida albicans F5; assay: microbe, parasite or virus in culture
[35] = test system: C. albicans ATCC 10231 cells; assay: Fluorescence microscopy of uptake and accumulation; details: 256 μg mL^−1 (8 × MFC of Compound 1-R8)
Protocol: Candida albicans ATCC 10231 strain were grown in the YPG medium overnight (16–18 h) at 30 °C, washed twice with sterile phosphate-buffered saline (PBS) and resuspended in RPMI 1640 at a cell density of 2 × 10^7 cells mL^−1. The inoculum (5 mL) was added to 5 mL RPMI 1640 with 256 μg mL^−1 of tested compounds. After appropriate period of time, 2 mL of cell suspension was washed three times with sterile phosphate-buffered saline (PBS). If appropriate, cells where resuspended in 1 mL of PBS and 5 μL of 2 mg mL^−1 propidium iodide (PI, Sigma-Aldrich, St. Louis, MO, USA) were added and incubated for 30 min and then rinsed three times with PBS buffer. After that, cells were resuspended in 5 μL 90% (by volume) glycerol/10% (by volume) 1 × PBS and transferred to a microscopic slide. The cells were examined with the Olympus BX-60 fluorescence microscope (λex = 330–385 nm, λem ≥ 420 nm, lens × 40) equipped with the Olympus XC50 digital camera (Olympus Corporation, Tokyo, Japan) or LSM800 T-PMT confocal microscope with a CCD camera (ZEISS, Göttingen, Germany). Images were analysed and processed with cellSens Dimension and ZEN Blue software [47].

N=C(N)NCCC[C@H](NC(=O)[C@H](CCCNC(=N)N)NC(=O)[C@H](CCCNC(=N)N)NC(=O)[C@H](CCCNC(=N)N)NC(=O)[C@H](CCCNC(=N)N)NC(=O)[C@H](CCCNC(=N)N)NC(=O)[C@H](CCCNC(=N)N)NC(=O)[C@@H](N)CCCNC(=N)N)C(=O)NCCNc1ccc2ncn3c4ccc(O)cc4c(=O)c1c23 [Compound 1-R8]
MFC [1]: 32 µg/mL (≈ 20.7 µM)
MFC [2]: 128 µg/mL (≈ 82.9 µM)
MFC [3]: 16 µg/mL (≈ 10.4 µM)
MFC [4]: 8 µg/mL (≈ 5.18 µM)
MFC [5]: 2 µg/mL (≈ 1.3 µM)
IC50 ([6]; 72 h): 1390 ± 99 nM
IC50 ([7]; 72 h): 991 ± 97 nM
MIC90 ([8]; ATCC 10231, 24 h, pH 7): 1 µg/mL (≈ 0.648 µM)
MIC90 ([9]; ATCC 90030, 24 h, pH 7): 4 µg/mL (≈ 2.59 µM)
MIC90 ([10]; ATCC 6258, 24 h, pH 7): 0.5 µg/mL (≈ 0.324 µM)
MIC90 ([11]; ATCC 22019, 24 h, pH 7): 0.25 µg/mL (≈ 0.162 µM)
MIC90 ([12]; ATCC 9763, 24 h, pH 7): 1 µg/mL (≈ 0.648 µM)
MIC90 [13]: 2 µg/mL (≈ 1.3 µM)
MIC90 [14]: 2 µg/mL (≈ 1.3 µM)
MIC90 [15]: 2 µg/mL (≈ 1.3 µM)
MIC90 [16]: 2 µg/mL (≈ 1.3 µM)
MIC90 [17]: 1 µg/mL (≈ 0.648 µM)
MIC90 [18]: 1 µg/mL (≈ 0.648 µM)
MICs [19]: ≤ 4 µg/mL

COc1cc(NS(C)(=O)=O)ccc1Nc1c2ccccc2nc2ccccc12 [m-AMSA]
IC50 [20]: > 200 µM

NCCNc1ccc2ncn3c4ccc(O)cc4c(=O)c1c23 [Compound 1, 5-((2-Aminoethyl)amino)-8-hydroxy-6H-imidazo[4,5,1-de]acridin-6-one]
Antifungal Activity (level) ([21]; Table 3): −
antifungal activity ([21]; as reported in Table 1): no antifungal activity was observed
concentration that totally inhibited yeast topoisomerase II-mediated relaxation [22]: 50 µM
formation of DNA–yeast topoisomerase II cleavable complexes [23]: stimulated the formation of DNA–yeast topoisomerase II cleavable complexes
IC50 ([6]; Homo sapiens, HEK293, 72 h treatment, MTT, ± SD, read-out: IC50 (antiproliferative activity)): 550 ± 125 nM
IC50 ([7]; Homo sapiens, HEPG2, 72 h treatment, MTT, ± SD, read-out: IC50 (antiproliferative activity)): 364 ± 13 nM
IC50 HEK293/MIC90 (mycostatic selectivity index) ([8]; HEK293 vs Candida albicans ATCC 10231, MIC converted to micromolar): <0.0058
IC50 HEPG2/MIC90 (mycostatic selectivity index) ([8]; HEPG2 vs Candida albicans ATCC 10231): <0.0038
IC50 HEK293/MIC90 (mycostatic selectivity index) ([9]; HEK293 vs Candida glabrata ATCC 90030): <0.0058
IC50 HEPG2/MIC90 (mycostatic selectivity index) ([9]; HEPG2 vs Candida glabrata ATCC 90030): <0.0038
IC50 HEK293/MIC90 (mycostatic selectivity index) ([10]; HEK293 vs Candida krusei ATCC 6258): <0.0058
IC50 HEPG2/MIC90 (mycostatic selectivity index) ([10]; HEPG2 vs Candida krusei ATCC 6258): <0.0038
IC50 HEK293/MIC90 (mycostatic selectivity index) ([11]; HEK293 vs Candida parapsilosis ATCC 22019): <0.0058
IC50 HEPG2/MIC90 (mycostatic selectivity index) ([11]; HEPG2 vs Candida parapsilosis ATCC 22019): <0.0038
IC50 HEK293/MIC90 (mycostatic selectivity index) ([12]; HEK293 vs Saccharomyces cerevisiae ATCC 9763): <0.0058
IC50 HEPG2/MIC90 (mycostatic selectivity index) ([12]; HEPG2 vs Saccharomyces cerevisiae ATCC 9763): <0.0038
MIC90 ([24]; ATCC10231): > 64 µg/mL
MIC90 ([24]; ATCC10231, 24 h, pH 7): > 64 µg/mL
MIC90 [25]: > 64 µg/mL
MIC90 [26]: > 64 µg/mL
MIC90 [27]: > 64 µg/mL
MIC90 [28]: > 64 µg/mL
MIC90 [29]: > 64 µg/mL
MIC90 [30]: > 64 µg/mL
MIC90 [31]: > 64 µg/mL
MIC90 [32]: > 64 µg/mL
MIC90 [33]: > 64 µg/mL
MIC90 [34]: > 64 µg/mL
uptake and accumulation in fungal cells [35]: no significant accumulation
